Test results taken from ChEMBL document CHEMBL4818998, “Melatonin derivatives combat with inflammation-related cancer by targeting the Main Culprit STAT3” (Eur J Med Chem, 2021).

Key:
HCT-116 [1] = assay: Antiproliferative activity against human HCT-116 cells assessed as inhibition of cell proliferation measured after 72 hrs by MTT assay; format: functional, cell-based; details: HCT-116, 72 h
MCF7 = assay: Antiproliferative activity against human MCF7 cells assessed as inhibition of cell proliferation measured after 72 hrs by MTT assay; format: functional, cell-based; details: MCF7, 72 h
HepG2 = assay: Antiproliferative activity against human HepG2 cells assessed as inhibition of cell proliferation measured after 72 hrs by MTT assay; format: functional, cell-based; details: HepG2, 72 h
A549 = assay: Antiproliferative activity against human A549 cells assessed as inhibition of cell proliferation measured after 72 hrs by MTT assay; format: functional, cell-based; details: A549, 72 h
MGC-803 = assay: Antiproliferative activity against human MGC-803 cells assessed as inhibition of cell proliferation measured after 72 hrs by MTT assay; format: functional, cell-based; details: MGC-803, 72 h
SGC-7901 = assay: Antiproliferative activity against human SGC-7901 cells assessed as inhibition of cell proliferation measured after 72 hrs by MTT assay; format: functional, cell-based; details: SGC-7901, 72 h
HGC-27 = assay: Antiproliferative activity against human HGC-27 cells assessed as inhibition of cell proliferation measured after 72 hrs by MTT assay; format: functional, cell-based; details: HGC-27, 72 h
AGS = assay: Antiproliferative activity against human AGS cells assessed as inhibition of cell proliferation measured after 72 hrs by MTT assay; format: functional, cell-based
HCT-116 [2] = assay: Induction of apoptosis in human HCT-116 cells assessed as viable cells at 20 uM measured after 48 hrs by Annexin V-FITC/PI staining based flow cytometry (reference value: 94.9%); format: functional; details: read-out: Activity
HCT-116 [3] = assay: Induction of apoptosis in human HCT-116 cells assessed as early apoptotic cells at 20 uM measured after 48 hrs by Annexin V-FITC/PI staining based flow cytometry (reference value: 2.14%); format: functional
HCT-116 [4] = assay: Induction of apoptosis in human HCT-116 cells assessed as late apoptotic cells at 20 uM measured after 48 hrs by Annexin V-FITC/PI staining based flow cytometry (reference value: 1.42%); format: functional
HCT-116 [5] = assay: Induction of apoptosis in human HCT-116 cells assessed as necrotic cells at 20 uM measured after 48 hrs by Annexin V-FITC/PI staining based flow cytometry (reference value: 1.5%); format: functional

| Structure (SMILES) | IC50 (HCT-116 [1]) [µM] | IC50 (MCF7) [µM] | IC50 (HepG2) [µM] | IC50 (A549) [µM] | IC50 (MGC-803) [µM] | IC50 (SGC-7901) [µM] | IC50 (HGC-27) [µM] | IC50 (AGS) [µM] | viability at 20 µM (HCT-116 [2]) [%] | Activity (HCT-116 [3]) [%] | Activity (HCT-116 [4]) [%] | Activity (HCT-116 [5]) [%] |
| --- | --- | --- | --- | --- | --- | --- | --- | --- | --- | --- | --- | --- |
| COc1ccc(CCNc2ccccc2C(=O)NCCc2c[nH]c3ccccc23)cc1OC | > 30 | > 30 | > 30 | > 30 | > 30 | > 30 | > 30 | > 30 |  |  |  |  |
| O=C(NCCc1c[nH]c2ccccc12)c1ccccc1NCCCCO | > 30 | > 30 | > 30 | > 30 | > 30 | > 30 | > 30 | > 30 |  |  |  |  |
| Cc1ccc(S(=O)(=O)Nc2ccccc2C(=O)NCCc2c[nH]c3ccccc23)cc1 | > 30 | > 30 | > 30 | > 30 | > 30 | > 30 | > 30 | > 30 |  |  |  |  |
| COc1ccc2[nH]cc(CCNC(=O)c3ccccc3Nc3ccccc3)c2c1 | 24.7 | 29 | > 30 | > 30 | 12.8 | > 30 | > 30 | > 30 |  |  |  |  |
| O=C(NCCc1c[nH]c2ccccc12)c1ccccc1NC1CCCCC1 | > 30 | > 30 | 28.6 | > 30 | > 30 | > 30 | 26.7 | > 30 |  |  |  |  |
| O=c1[nH]cc(F)c(=O)[nH]1 [FLUOROURACIL] | 6.1 | 13.2 | > 30 | > 30 | 29.2 | > 30 | > 30 | 11 | 81.3 | 5.54 | 10.4 | 2.69 |
| COc1ccc2[nH]cc(CCNC(=O)c3ccccc3Nc3cccc(Cl)c3C)c2c1 | 20.4 | 25.3 | 21.9 | 17.8 | 9.8 | 27.9 | 19.9 | 16 |  |  |  |  |
| CN(c1ccccc1)c1ccccc1C(=O)NCCc1c[nH]c2ccccc12 | 17.2 | 19.6 | 21.3 | > 30 | 11.1 | > 30 | > 30 | 14.7 |  |  |  |  |
| O=C(NCCc1c[nH]c2ccccc12)c1ccccc1NC1CC1 | > 30 | > 30 | 28.4 | > 30 | > 30 | > 30 | 28.3 | > 30 |  |  |  |  |
| CN(C)c1ccccc1C(=O)NCCc1c[nH]c2ccccc12 | 16.6 | > 30 | > 30 | > 30 | > 30 | > 30 | > 30 | 22.6 |  |  |  |  |
| O=C(NCCc1c[nH]c2ccccc12)c1ccccc1NC1CCCC1 | > 30 | > 30 | 28.8 | > 30 | > 30 | > 30 | 19.3 | > 30 |  |  |  |  |
| Cc1cccc(Nc2ccccc2C(=O)NCCc2c[nH]c3ccccc23)c1C | 14.4 | > 30 | 21.7 | > 30 | > 30 | > 30 | > 30 | 16.6 |  |  |  |  |
| O=C(NCCc1c[nH]c2ccccc12)c1ccccc1NCc1ccccc1 | > 30 | > 30 | > 30 | > 30 | > 30 | > 30 | 19.9 | > 30 |  |  |  |  |
| COc1ccc2[nH]cc(CCNC(C)=O)c2c1 [MELATONIN] | > 30 | > 30 | > 30 | > 30 | > 30 | > 30 | > 30 | > 30 |  |  |  |  |
| Cc1cccc(Nc2ccccc2C(=O)NCCc2c[nH]c3ccc(O)cc23)c1C | 22.2 | 25.3 | 17 | > 30 | 16.5 | > 30 | 27 | 8.97 |  |  |  |  |
| CNc1ccccc1C(=O)NCCc1c[nH]c2ccccc12 | > 30 | > 30 | > 30 | > 30 | > 30 | > 30 | > 30 | > 30 |  |  |  |  |
